Where two headings read alike, the source gives them in different places. Values belong to the compound of their own block, whether it stands above or below them.
Columns and labels:
[1] = Biodistribution in normal rats; format: in vivo, rat; conditions: ^99m Tc
Experimental: Tracheostomy was performed in an anesthetized rat and the left jugular vein was cannulated with one piece of PE-50 tubing for injection of the ^99m Tc radiopharmaceutical. The bladder was catheterized utilizing heat flared PE-50 tubing for urine collection. […] Each animal was sacrificed at the conclusion of the dynamic study and simultaneous static images of the isolated lungs, heart, liver, spleen, stomach, kidneys, bowel and bladder with urine were acquired as well as a static image of the rat carcass without the organs. Total counts for the injected dose were determined from the sum of the isolated organ counts and the carcass counts decay corrected to the time of organ imaging. Regions of interest were drawn around each organ to determined the percent injected dose in each organ.

[2] = Renal clearance / renal excretion in rats (statements in words); format: in vivo, rat; conditions: for Renal clearance of DD-EC compared to LL-EC: vs LL-isomer
Experimental: Tracheostomy was performed in an anesthetized rat and the left jugular vein was cannulated with one piece of PE-50 tubing for injection of the ^99m Tc radiopharmaceutical. The bladder was catheterized utilizing heat flared PE-50 tubing for urine collection. A bolus injection of the radiopharmaceutical (400-500 μCi/0.25 ml) was given and the rat was imaged (1 frame/10 s) for 22 minutes (130 frames) using a gamma camera. Each animal was sacrificed at the conclusion of the dynamic study and simultaneous static images of the isolated lungs, heart, liver, spleen, stomach, kidneys, bowel and bladder with urine were acquired as well as a static image of the rat carcass without the organs. Total counts for the injected dose were determined from the sum of the isolated organ counts and the carcass counts decay corrected to the time of organ imaging. Regions of interest were drawn around each organ to determined the percent injected dose in each organ.

[3] = Normal volunteer studies: plasma clearance, urinary excretion and imaging; format: in vivo, human; conditions: humans; for Clearance rate (EC/OIH): ± spread as printed
Experimental: ^99m Tc LL-EC, DD-EC and DL-EC were each evaluated in three normal male volunteers. The HPLC purified complexes and phosphate-buffered saline (pH 7.0) were passed through a SEP-PAK Plus C18 cartridge (primed with 1 ml ethanol) and a sterile Millex-GS 0.22 μm filter unit into a sterile, pyrogen-free empty vial. The final concentration was ~2.0 mCi/2.5 ml and the final pH ranged from 5.7 to 7.4. Test samples of each complex were sterile and pyrogen free. Approximately 2 mCi of each ^99m Tc complex were coinjected with 200 μCi of I-131 OIH and plasma samples were obtained at 5, 10, 15, 20, 30 45, 60 and 90 minutes postinjection. The plasma clearances of I-131 OIH and each EC complex were determined using the single injection, two-compartment model of Sapirstein et al., Am. J. Physiol. 181:330-336. The volunteers voided at 30, 90 and 180 minutes postinjection to determine the percent dose in the urine at each time period. A urine sample from the 30 minute urine collection was obtained for HPLC analysis from one of the normal volunteers and analyzed for each complex. One volunteer was imaged with each complex using a simultaneous acquisition with a 20% window centered over the 363 KeV photopeak of I-131 and a second 20% window over the 140 KeV photopeak of ^99m Tc. Data were acquired in a 128×128 matrix using a three phase dynamic acquisition: phase 1 consisted of 24 two second frames, phase 2 consisted of 16 fifteen second frames and phase 3 consisted of 40 thirty second frames. Data were acquired using a general Electric (Milwaukee, Wis.) Star-Cam computer fitted with a high energy collimator. All studies were performed with the approval of the Human Investigations Committee and a signed consent form was obtained.

[4] = physiological pH; cited from earlier work
[5] = Stability of metal chelates; format: physicochemical
[6] = mice; cited from earlier work
[7] = mice and baboons; cited from earlier work
[8] = in vivo; cited from earlier work
[9] = cited from earlier work
[10] = % of that of OIH; cited from earlier work
[11] = normal volunteers; increases in renal failure; cited from earlier work
[12] = cited from earlier work; remark: listed apart in the source
[13] = in vivo; cited from earlier work; remark: listed apart in the source
[14] = in vivo; cited from earlier work; remark: listed apart in the source
[15] = in vivo; cited from earlier work; remark: listed apart in the source
[16] = cited from earlier work; remark: listed apart in the source

Biodistribution: Bladder ([1]; 22 minutes post injection): 63.2% of total activity | Biodistribution: Carcass ([1]; 22 minutes post injection): 25.4% of total activity | Biodistribution: Intestines ([1]; 22 minutes post injection): 2.6% of total activity | Biodistribution: Kidneys ([1]; 22 minutes post injection): 5.4% of total activity | Biodistribution: Liver ([1]; 22 minutes post injection): 2.9% of total activity | Biodistribution: Stomach ([1]; 22 minutes post injection): < 1% of total activity | Renal clearance of DD-EC compared to LL-EC [2]: superior to L,L-EC in rats | Renal clearance / excretion compared to MAG3 ([2]; vs ^99m Tc MAG3, listed as DD-EC): significantly higher | Clearance rate (EC/OIH) [3]: 82 ±8%
Compound: O=C(O)[C@@H](CS)NCCN[C@H](CS)C(=O)O (99mTc complex, metal not drawn) [D,D-EC, D,D-ethylenedicysteine]
Renal clearance of DD-EC compared to LL-EC ([2]; listed as DD-EC): significantly higher than that of its LL-isomer | Renal clearance / excretion compared to MAG3 ([2]; vs ^99m Tc MAG3): more rapid renal clearance than ^99m Tc MAG3 | Imaging properties [3]: excellent imaging properties | Rate of excretion in the urine [3]: excreted at essentially the same rate in the urine | Dianionic form [4]: 80% | Monoanionic form [4]: 20%

Compound: CC(C)(S)C(=O)NCCCNC(=S)NCCC(=O)O [(Me)2 -TAPTU-EtCOOH, dimethylthioacetamidepropylthiourea-ethylCOOH]
Stability compared with corresponding thioacetamidethiourea derivative [5]: greater stability than the corresponding thioacetamidethiourea derivative | Stability compared with corresponding thioacetamidethiourea derivative ([5]; listed as dimethyl-TAPTU-EtCOOH): more stable than the corresponding thioacetamide-thiourea derivative

Biodistribution: Bladder ([1]; 22 minutes post injection): 45.6% of total activity | Biodistribution: Carcass ([1]; 22 minutes post injection): 22.6% of total activity | Biodistribution: Intestines ([1]; 22 minutes post injection): 1.8% of total activity | Biodistribution: Kidneys ([1]; 22 minutes post injection): 24.4% of total activity | Biodistribution: Liver ([1]; 22 minutes post injection): 4.5% of total activity | Biodistribution: Stomach ([1]; 22 minutes post injection): < 1% of total activity | Clearance rate (EC/OIH) [3]: 70 ±3%
Compound: O=C([O-])[C@H](C[S-])NCCN[C@@H](CS)C(=O)[O-].[O]=[Tc+3] [L,L-EC, L,L-ethylenedicysteine, reference compound]
Rate of excretion in the urine [3]: excreted at essentially the same rate in the urine | Dianionic form [4]: 80% | Monoanionic form [4]: 20% | Excretion into the urine [6]: rapidly and efficiently excreted into the urine in mice | Comparison to enantiomer DD-EC [7]: superior to the enantiomer ^99m Tc DD-EC | Pharmacokinetic properties relative to OIH and MAG3 [7]: more closely approached those of OIH than the properties of MAG3 | Excretion by the kidneys [8]: excreted rapidly and efficiently by the kidneys

Biodistribution: Bladder ([1]; 22 minutes post injection): 57% of total activity | Biodistribution: Carcass ([1]; 22 minutes post injection): 14% of total activity | Biodistribution: Intestines ([1]; 22 minutes post injection): 5% of total activity | Biodistribution: Kidneys ([1]; 22 minutes post injection): 23% of total activity | Biodistribution: Liver ([1]; 22 minutes post injection): 1% of total activity | Biodistribution: Stomach ([1]; 22 minutes post injection): < 1% of total activity
Compound: O=C([O-])CN=C([O-])CN=C([O-])CN=C([O-])C[S-].[O]=[99Tc+3] [MAG3, technetium-99m (^99m Tc) mercaptoacetyltriglycine, reference compound]
Plasma-protein binding [9]: very high | Clearance relative to OIH [10]: 50-60% | Transport into the small intestine via the hepatobiliary system [11]: a small percentage | Clearance compared to DTPA ([12]; in vivo): higher clearance

Compound: C[C@H](NC(=O)CNC(=O)CS)C(=O)NCC(=O)O [MAGAG, mercaptoacetylglycylalanylglycine]
Comparison of diastereomers to MAG3 [13]: one diastereomer comparable and the other considerably inferior

Compound: O=C(O)CNC(=O)c1ccccc1[131I] [OIH, ^131 I-orthohippurate]
Clearance relative to PAH ([12]; % of the clearance of PAH): 83%

Rate of excretion in the urine [3]: slower rate of excretion | Clearance rate (EC/OIH) [3]: 40 ±5%
Compound: D,L-ethylenedicysteine [DL-EC]

Biodistribution: Bladder ([1]; 30 minutes post injection): 58.2% of total activity | Biodistribution: Carcass ([1]; 30 minutes post injection): 19.8% of total activity | Biodistribution: Intestines ([1]; 30 minutes post injection): 6.4% of total activity | Biodistribution: Kidneys ([1]; 30 minutes post injection): 7.2% of total activity | Biodistribution: Liver ([1]; 30 minutes post injection): 4.8% of total activity | Biodistribution: Stomach ([1]; 30 minutes post injection): 1.9% of total activity | Removal by the kidneys [2]: rapid and selective removal | Uptake in other major organs [2]: only trace amounts
Compound: L-cysteinylethylenepyridine carboxamide [L-CEPIC]
Renal clearance / excretion compared to MAG3 ([2]; vs ^99m Tc MAG3): even more rapidly excreted by the kidneys than ^99m Tc MAG3

Compound: ^99m Tc L,L-ethylenedicysteine diethyl ester [LL-ECD]
Brain perfusion agent [14]: good brain perfusion agent

Compound: ^99m Tc mercaptoacetylglycylglycyl-L-alanine [MAG2-Ala]
Characteristics as imaging agents [15]: promising characteristics as imaging agents

Compound: ^99m Tc mercaptoacetylglycylglycyl-L-asparagine [MAG2-Asn]
Characteristics as imaging agents [15]: promising characteristics as imaging agents

Compound: ^99m Tc mercaptoacetylglycylglycyl-L-glutamine [MAG2-Gln]
Characteristics as imaging agents [15]: promising characteristics as imaging agents

Compound: ^99m Tc mercaptoacetylglycylglycyl-taurine
Comparison to MAG3 in dogs [16]: inferior to ^99m Tc MAG3 in dogs

Renal clearance / excretion compared to MAG3 ([2]; vs ^99m Tc MAG3): superior renal clearance
Compound: thioacetamidethiourea-ethylCOOH [TATU-EtCOOH]

Rate of renal clearance [2]: cleared at a moderate rate
Compound: thioacetamidethiourea-para-phenylCOOH [TATU-pPhCOOH]
